# Assay results published in patent publication US11225469B2, “Inhibitors of phosphoglycerate dehydrogenase (PHGDH) and uses thereof” (Whitehead Institute for Biomedical Research, priority 2015, dated 2022).
# Tests used:
# MDA-MB-468 tumors = assay: U-13C-glucose infusion in mice bearing MDA-MB-468 tumors (target engagement); type: in vivo, mouse
# Description: Thus, the PHGDH inhibitors described herein engage PHGDH in tumors and recapitulate the selective toxicity of PHGDH knockdown in vivo.
# Chronic catheters were surgically implanted into the jugular veins of normal or tumor bearing animals 3-4 days prior to infusions. Animals were fasted for 6 hours (morning fast) and infusions were performed in free-moving, conscious animals at 1:00 pm for all studies to minimize metabolic changes associated with circadian rhythm. […] Animals were terminally anesthetized with sodium pentobarbital and all tissues were fully harvested in less than 5 minutes to preserve the metabolic state. Tumors and adjacent lung tissue were carefully dissected and rapidly frozen using a BioSqueezer (BioSpec Products) to ensure rapid quenching of metabolism throughout the tissue section. Tissues were stored at −80 C and extracted with 80:20 (v/v) methanol:water in the same manner as cells prior to LCMS analysis.
# [1] = test system: PHGDH-independent cell lines (ZR-75-1, SK-MEL-2); assay: Cytotoxicity (Cell Titer-Glo), other PHGDH-independent cell lines; type: cell-based, human
# Description: Knockdown of PHGDH is selectively toxic towards PHGDH-dependent cell lines, and minimally toxic towards PHGDH-independent cell lines. […] Cell count was determined by quantitating the amount of ATP present with CellTitreGlo® measurements 96 hours after dosage.
# Cells were seeded in white 96-well plates (Greiner) at a density of 2000 cells/well (MDA-MB-468, BT-20, MT-3) or 1000 cells/well (all other cell lines) and allowed to attach for 24 hours. Compounds were prepared in DMSO and dispensed using an HP D300 compound dispenser. Cell viability was assessed with Cell Titer-Glo (Promega) at four days following treatment and luminescence measured with a SpectraMax M5 Plate Reader (Molecular Devices). Luminescence was normalized to an untreated control in identical medium. For rescue experiments, RPMI was supplemented with 40 μM adenosine, uridine, guanosine, cytidine, deoxyadenosine, thymidine, deoxyguanosine, and deoxycytidine and the medium was replaced daily.
# [2] = Pharmacokinetics after intraperitoneal administration; type: in vivo
# PHGDH = PHGDH (Homo sapiens (Human), UniProt O43175); assay: Inhibitor kinetics: competition against substrates and dilution experiments; type: biochemical; conditions: Lineweaver-Burk
# Excerpt: Destabilization has been previously observed in the specific binding of small molecules to their protein targets (see, e.g., Hamiaux, C. et al. “DAD2 is an α/β hydrolase likely to be involved in the perception of the plant branching hormone, strigolactone.” Curr Biol 22, 2032-2036 (2012)).
# [3] = test system: MDA-MB-231 orthotopic xenografts; assay: MDA-MB-231 orthotopic xenografts; type: in vivo, mouse; conditions: 40 mg/kg daily, IP
# Description: Female NOD.CB17-Prkdc^scid/J mice, 6-8 weeks old, were obtained from Jackson Laboratories. All animals were provided with food ad libitum for the duration for the duration of the experiment. The animals were allocated randomly for induction with MDA-MB-231 or MDA-MB-468 tumors and tumor group was assigned blindly. 500,000 MDA-MB-231 or MDA-MB-468 cells were injected into the 4th mammary fat pad of each mouse. After 30 days, the tumors were palpable, and the mice were pooled by tumor type and divided randomly to two groups, which were assigned blindly to vehicle or NCT-503 treatment. […] Caliper measurements were obtained twice weekly and tumor volumes were calculated with the modified ellipsoid formula: volume=0.5×width^2×length.
# For quantitation of necrotic regions, fixed tumors were embedded and sections stained with hematoxylin and eosin. Slides were scanned with a Leica Aperio AT2 brightfield scanner. Tumor and necrotic cross-sectional regions were manually delineated and measured using Leica ImageScope software to calculate the percentage of necrosis.
# [4] = test system: MDA-MB-231 cells over-expressing PHGDH; assay: Intracellular serine in MDA-MB-231 cells expressing PHGDH, medium lacking serine and glycine (LC-MS); type: cell-based, human; conditions: media lacking serine and glycine
# Description: To examine target engagement of PHGDH inhibitors in cells, MDA-MB-231 cells that lack detectable expression of PHGDH and MDA-MB-231 cells that stably express full-length human PHGDH (MDA-MB-231-PHGDH) were treated with PHGDH inhibitors in RPMI lacking serine and glycine. A MDA-MB-231 cell line was constructed which expresses PHGDH for comparison against the MDA-MB-231 empty vector line. MDA-MB-231 breast cancer cells were infected with PHGDH-expressing retrovirus.
# MDA-MB-231 cells are incapable of synthesizing serine, but the addition of PHGDH permits these cells to synthesize serine. […] Concentrations of serine were determined by comparison with signals of internal standards and calibration curves. PHGDH inhibition reduces steady-state levels of intracellular serine in MDA-MB-231 cells over-expressing PHGDH. Studies were also performed in MDA-MB-468 cells, which over-express PHGDH and are PHGDH-dependent.
# Cells were evenly seeded at 400,000 cells per well of a 6-well plate and allowed to attach for 24 hours. Prior to all labeling experiments, cells were pretreated with 10 μM compound or an equivalent volume of DMSO in RPMI for 1 hour. For steady-state metabolite concentrations, cells were washed with PBS prior to pretreatment and treatment in RPMI lacking serine and glycine. For labeling experiments, U-^13C-glucose, U-^13C-serine, or U-^13C-glycine replaced the corresponding unlabeled RPMI component. Cells were washed in 4° C. […] Triplicate identically seeded wells were trypsinzed and analyzed with a Multisizer Coulter Counter (Beckman Coulter) to obtain cell counts and total cell volumes for normalization.
# Dried metabolites were resuspended in 100 μL water, centrifuged at 13,000×g at 4° C. for 10 minutes, and the supernatant recovered for analysis. […] Metabolites were monitored using a polarity-switching full-scan method and identified by accurate mass (±20 ppm) and retention time within 15 seconds of a previously run pure standard. […]
# Chain of PHGDH (O43175 whole entry): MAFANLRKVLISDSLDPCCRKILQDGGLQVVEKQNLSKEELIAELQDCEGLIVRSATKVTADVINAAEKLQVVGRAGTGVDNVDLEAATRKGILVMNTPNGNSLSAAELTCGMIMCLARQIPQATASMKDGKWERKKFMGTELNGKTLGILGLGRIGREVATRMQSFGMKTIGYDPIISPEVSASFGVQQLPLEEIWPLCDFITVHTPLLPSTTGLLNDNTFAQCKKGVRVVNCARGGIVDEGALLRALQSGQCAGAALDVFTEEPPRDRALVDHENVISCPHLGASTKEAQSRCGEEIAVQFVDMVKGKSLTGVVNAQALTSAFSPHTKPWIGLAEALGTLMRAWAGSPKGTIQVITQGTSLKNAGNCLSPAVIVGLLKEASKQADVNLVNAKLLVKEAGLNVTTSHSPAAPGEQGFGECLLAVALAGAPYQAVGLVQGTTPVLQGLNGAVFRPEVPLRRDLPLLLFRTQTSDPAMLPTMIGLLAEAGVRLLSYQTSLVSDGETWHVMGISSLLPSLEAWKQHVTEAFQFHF
smiles,measurement,setting,value
"Cc1cc(C)nc(NC(=S)N2CCN(Cc3ccc(C(F)(F)F)cc3)CC2)c1 [Compound 267, N-(4,6-dimethylpyridin-2-yl)-4-(4-(trifluoromethyl)benzyl)piperazine-1-carbothioamide]",production of glucose-derived serine in tumors,MDA-MB-468 tumors,decreased production
same,toxicity,[1],no toxicity
same,partitioning into the liver and brain,[2],significant partitioning
same,type of inhibition with respect to 3-PG,PHGDH,mixed-mode inhibition
same,type of inhibition with respect to NAD+,PHGDH,non-competitive inhibition
same,growth or weight of xenografts,[3],did not affect the growth or weight
same,intracellular serine levels,[4],reduced
